Test results taken from paper PMC6385087, “New Multitarget Hybrids Bearing Tacrine and Phenylbenzothiazole Motifs as Potential Drug Candidates for Alzheimer’s Disease” (Molecules, 2019).
Like-named read-outs stand apart in the source and are kept apart here.

How the values were obtained:
Aβ1–42 self-aggregation = target: T1, Aβ1–42 self-aggregation (Homo sapiens, UniProt P05067); assay: Aβ1–42 self-aggregation inhibition, thioflavin T fluorescence assay; format: biochemical; settings: for inhibition at 40 µM: read-out: Inhibition of Aβ-self-aggregation (%)
T1 construct: Commercially available Aβ1-42 peptide was obtained from Aldrich; purchased Aldrich
T1 sequence (P05067 672-713 limits assumed): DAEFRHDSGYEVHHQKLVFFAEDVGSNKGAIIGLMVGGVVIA
Procedure: […]. Since the compounds of this series presented some solubility problems in methanol, the assays were performed with ligands at concentrations of 40 µM, i.e., half of the concentration usually used (80 µM) in these assays. […]. […] So, it appears that introduction of a chloro substituent in TAC and/or a hydroxyl group in the carbon linker are not well suited for the interaction with β-sheet secondary structure of Aβ aggregates. […].
Commercially available Aβ1-42 peptide was obtained from Aldrich and stored at −20 °C. It was treated with 1,1,1,3,3,3-hexafluoropropan-2-ol (HFIP) to avoid self-aggregation and reserved. HFIP pre-treated Aβ1–42 samples were re-dissolved in CH3CN/Na2CO3 (300 µM)/NaOH (250 µM) (48.3:48.3:4.3, v/v/v) solvent mixture in order to have a stable stock solution; this solution (500 µM) was further diluted in phosphate buffer (0.215 M, pH 8.0) to obtain 40 µM solution. The ligand, which was previously dissolved in methanol, was further diluted in phosphate buffer to a final concentration of 40 µM. Aβ1–42 aggregation was determined by measuring the fluorescence emission of Thioflavin T dye, with a Cary Eclipse Varian fluorimeter (Molecular Devices, San José, CA, USA).
After incubation for 24 h at 37 °C, without stirring, the samples were added to a 96-well plate (BD Falcon) with 180 µL of 5 µM ThT in 50 mM glycine-NaOH (pH 8.5) buffer. Blank samples were prepared for each concentration in a similar way, devoid of peptide. As for the control, a sample of the peptide was incubated under identical conditions but without the inhibitor. After 5-min incubation with the dye, the ThT fluorescence was measured at the following wavelengths: 446 nm (excitation) and 486 nm (emission). The percent inhibition of the self-induced aggregation due to the presence of the test compound was calculated by Equation (2), in which IFi and IF0 corresponded to the fluorescence intensities, in the presence and the absence of the test compound, minus the fluorescence intensities due to the respective blanks. I% = 100 − (IFi/IF0 × 100)(2)
The reported values were obtained as the mean ± S.E.M. of two different experiments.

AChE from electric eel = target: T2, AChE from electric eel (Electrophorus electricus, UniProt O42275); assay: biochemical; settings: means of two experiments, read-out: Inhibition of AChE (IC50)
T2 construct: commercially available enzyme AChE 500 U (extracted from electrophorus electricus); purchased type VI-S; host or cells: extracted from electric eel
T2 sequence (O42275 24-633): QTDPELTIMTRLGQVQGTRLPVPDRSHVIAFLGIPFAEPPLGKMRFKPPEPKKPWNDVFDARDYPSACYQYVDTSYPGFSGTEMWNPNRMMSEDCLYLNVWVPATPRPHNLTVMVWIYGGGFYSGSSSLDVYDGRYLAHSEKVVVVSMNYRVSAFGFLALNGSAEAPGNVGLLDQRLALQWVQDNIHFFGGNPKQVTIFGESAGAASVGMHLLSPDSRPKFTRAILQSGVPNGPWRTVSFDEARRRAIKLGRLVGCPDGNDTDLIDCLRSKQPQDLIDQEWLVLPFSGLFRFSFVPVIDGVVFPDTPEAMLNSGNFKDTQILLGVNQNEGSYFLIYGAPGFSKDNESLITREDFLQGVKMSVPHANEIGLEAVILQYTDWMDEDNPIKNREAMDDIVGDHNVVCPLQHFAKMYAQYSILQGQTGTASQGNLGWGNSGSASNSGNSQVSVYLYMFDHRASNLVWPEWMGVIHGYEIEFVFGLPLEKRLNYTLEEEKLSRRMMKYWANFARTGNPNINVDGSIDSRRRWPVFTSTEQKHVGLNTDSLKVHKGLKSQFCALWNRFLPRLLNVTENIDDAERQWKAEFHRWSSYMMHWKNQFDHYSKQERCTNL
Procedure: The analytical grade reagents were purchased from Sigma-Aldrich (St. Louis, MO, USA) and Acros (Thermo Fisher Scientific, Geel, Belgium) and were used without any further purification. The organic solvents were dried and distilled according to standard methods described in literature. […] The Proton and Carbon-13 NMR were recorded either on Bruker AVANCE III-300 (300 MHz and 75.5 MHz) or Bruker AVANCE III-400 (400 MHz and 100.5 MHz) NMR spectrometers (Billerica, MA, USA) at 25 °C using peaks of solvents as internal standard. The chemical shift values of protons or carbons were measured on a δ scale and the coupling constant values (J) were determined in Hertz. In the NMR representation, abbreviations are mentioned as: singlet represented by s, doublet represented by d, triplet represented by t, multiplet represented by m, double doublet represented by dd, and broad singlet represented by brs. The Leica Galen III hot stage apparatus (Leica Microsystems, Wetzlar, Germany) was used for measuring the melting points of compounds. […] The AChE inhibitory activity was measured in a 1 cm path length quartz cell through a Perkin Elmer Lambda 35 spectrophotometer equipped with a temperature programmer PTP1+1 Peltier System (T = 25.0 ± 0.1 °C) (Waltham, MA, USA). Electrospray ionization-mass (ESI-MS) measurements were carried out on a LCQ Fleet mass spectrometer (Thermo Scientific, S. Jose, CA, USA) operated in the ESI positive and negative ion modes.
Modified Ellman’s method was used as described previously for the determination of AChE activity. The AChE stock solution was prepared by dissolving commercially available enzyme AChE 500 U (extracted from electrophorus electricus) in 10 mL of TRIS buffer (50 mM, pH 8). HEPES buffer was used for the dilution of the enzyme to give the final AChE concentration. The assay solution consisted of 374 μL of 4-(2-hydroxyethyl)-1-piperazineethanesulfonic acid (Hepes) buffer (50 mM, pH 8.0), 476 μL of 3 mM bis(3-carboxy-4-nitrophenyl)disulfide (DTNB), 25 μL of AChE (type VI-S, from electric eel) stock solution, a variable volume (10–50 μL) of the compound’s stock solution (1 mg/mL of MeOH), and the necessary amount of methanol to attain the same volume of sample mixture (0.925 mL) in a 1 mL cuvette. Samples were left to react for 15 min and then the reaction was monitored at wavelength of 405 nm for 5 min, after adding 75 μL of 16 mM acetylthiocholine iodide (AChI) solution. Assays were run with a blank containing all the components except AChE, which was replaced by HEPES buffer. The velocities of the reaction were calculated as well as the enzyme activity. A control reaction was carried out using the sample solvent (methanol) in the absence of any tested compound, and it was considered as 100% activity. […] The inhibition curves were obtained by plotting the percentage of enzymatic inhibition versus inhibitor concentration and a calibration curve was obtained from which the linear regression parameters were calculated.

SH-SY5Y cells = assay: Dose-response screening for non-toxic concentration, MTT reduction; format: cell-based; settings: dose-response screening from 0.2 μM to 5 μM, 25 h
Procedure: The neuroprotective effect of TAC-PhBTA conjugates was evaluated using SH-SY5Y cells treated with Aβ1–42 peptides or ascorbate/iron. For each compound, a dose-response curve was performed to select a non-toxic concentration in order to analyze its neuroprotective effect (Figure 3).
SH-SY5Y human neuroblastoma cell line (ATCC-CRL-2266) grown in Dulbecco’s modified Eagle’s medium (DMEM) obtained from Gibco-Invitrogen (Life Technologies Ltd., Liverpool, UK) with 10% heat inactivated fetal calf serum, containing 50 U/mL penicillin, and 50 μg/mL streptomycin, under a humidified atmosphere of 95% air-5% CO2 at 37 °C. Cells were plated at 0.12 × 10^6 cells/mL for cell viability assay. […]. As a result we selected a 2.5 μM final concentration for compound 16; 0.5 μM final concentration for compound 17; 0.2 μM final concentration for compounds 14 and 15; and a 1 μM final concentration for compounds 19 and 18. […] The compounds were added to the cell media 1 h before the incubation with Aβ1–42 or ferrous sulfate/L-ascorbic acid. Aβ1–42 or ferrous sulfate/L-ascorbic acid where incubated alone or with the compound for an additional 24 h. Aβ1–42 was prepared as 276.9 μM stock in sterile water and added to the medium at 1 μM final concentration. Ferrous sulfate was freshly prepared as 0.36 M stock in water and added to the medium at 500 μM final concentration. L-Ascorbic Acid was freshly prepared as 80 mM stock in water and added to the medium at 5 mM final concentration. Aβ1–42 was purchased from Bachem (Torrance, CA, USA) and ferrous sulfate and L-ascorbic acid from Sigma Chemical Co (St. Louis, MO, USA).
Cell viability was determined by a MTT (3-(4,5-dimethylthiazol-2-yl)-2,5-diphenyltetrazolium bromide) reduction test. In viable cells, the enzyme succinate dehydrogenase metabolizes MTT into formazan that absorbs light at 570 nm. Following the cell treatment protocol the medium was aspirated and 0.5 mL MTT (0.5 mg/mL) was added to each well. The plate was then incubated at 37 °C for 1 h 30 min protected from light. At the end of the incubation period the formazan precipitates were solubilized with 0.5 mL of acidic isopropanol (0.04 M HCl/isopropanol). The absorbance was measured at 570 nm. Cell reduction ability was expressed as a percentage of untreated control cells.

[1] = self-mediated Aβ42 aggregation, ThT fluorescence, CL = 40 μM, means of two experiments

`Nc1c2c(nc3ccccc13)CCCC2` [TAC, tacrine] was tested, and the inhibition at 80 µM (Aβ1–42 self-aggregation; read-out: Inhibition of Aβ self-aggregation (%)) was 11% and the inhibition at 40 µM (Aβ1–42 self-aggregation) was 11%.

In the case of `COc1cc(-c2nc3ccccc3s2)ccc1OCC(=O)NCCCNc1c2c(nc3cc(Cl)ccc13)CCCC2` [compound 17, 2-(4-(Benzo[d]thiazol-2-yl)-2-methoxyphenoxy)-N-(3-((6-chloro-1,2,3,4-tetrahydroacridin-9-yl)amino)propyl)acetamide], the IC50 (AChE from electric eel) is reported as 130 nM, the “Highest non-toxic concentration selected” value (SH-SY5Y cells) is reported as 0.5 µM and the inhibition at 40 µM (Aβ1–42 self-aggregation; [1]) is reported as 32.5%.

In the case of `COc1cc(-c2nc3ccccc3s2)ccc1OCC(=O)NCC(O)CNc1c2c(nc3ccccc13)CCCC2` (stereo not drawn) [compound 18, 2-(4-(Benzo[d]thiazol-2-yl)-2-methoxyphenoxy)-N-(2-hydroxy-3-((1,2,3,4-tetrahydroacridin-9-yl)amino)propyl)acetamide], the IC50 (AChE from electric eel) is reported as 270 nM, the “Highest non-toxic concentration selected” value (SH-SY5Y cells) is reported as 1 µM and the “Inhibition of Aβ-self-aggregation (%)” value (Aβ1–42 self-aggregation; self-mediated Aβ42 aggregation, ThT fluorescence, CL = 40 μM, means of two experiments, 40 µM) is reported as 31.1%. For the same compound, the inhibition at 40 µM (Aβ1–42 self-aggregation; [1]) was roughly 31%.

With `COc1cc(-c2nc3ccccc3s2)ccc1OCC(=O)NCCNc1c2c(nc3ccccc13)CCCC2` [compound 14, 2-(4-(Benzo[d]thiazol-2-yl)-2-methoxyphenoxy)-N-(2-((1,2,3,4-tetrahydroacridin-9-yl)amino)ethyl)acetamide] the IC50 (AChE from electric eel) was 110 nM, the “Highest non-toxic concentration selected” value (SH-SY5Y cells) was 0.2 µM and the inhibition at 40 µM (Aβ1–42 self-aggregation; [1]) was 44.6%.
